How the values were obtained:
COX-1 [1] = target: T1, COX-1 (Homo sapiens, UniProt P23219); experiment: Human COX-1 enzyme activity (COX Inhibitor Screening Assay, prostaglandin EIA); type: biochemical; parameters: purchased Cayman Chemical; settings: test compound at 100 μM
Experimental: (§1) The human COX-1 and COX-2 enzyme activities and the measurement of the prostaglandin products synthesized were performed using the COX Inhibitor Screening Assay (Cayman Chemical, Ann Arbor, Mich.), which also contained the Prostaglandin Screening EIA Kit, used for prostaglandin quantification). The test compounds were dissolved at 50 times the highest final reaction concentration in DMSO or any other suitable solvent as stock solutions. These stock solutions were then diluted in the same solvent. Eight glass test tubes (13×100 mm) were placed in a 25° C. water bath. To each test tube was added 950 μL of reaction buffer (0.1 M Tris-HCl, pH 8.0, containing 5 mM EDTA, and 2 mM phenol), 10 μL of 100 µM heme solution, and 10 μL (5 units) of either human COX-1 or COX-2 enzyme and the resulting mixture was incubated for 2 minutes. Twenty μL of the solvent was added to one tube (100% initial activity or solvent control) and 20 μL of each dilution of the test compound was added to one tube each. Each tube was vortexed immediately after the addition. The enzyme was incubated with the inhibitor for 20 minutes at 25° C. The enzymatic reaction was then initiated by the addition of 10 μL of freshly prepared 10 mM arachidonic acid (neutralized with KOH), vortexed and then incubated for 2 minutes (or, in some cases as indicated, 30 seconds) at 37° C. The reaction was terminated by the addition of 50 μL of 1 M HCl, vortexed and placed at room temperature. One hundred μL of a saturated stannous chloride solution (50 mg/mL of 0.1 M HCl) was added and the reaction mixture was allowed to stand at room temperature for at least 5 minutes.
(§2) The prostaglandins (PG) produced in the reactions were assayed, after a 2,000-fold dilution, using the Prostaglandin Screening EIA Kit (Cayman Chemical, Ann Arbor, Mich.). The assay contains an antibody with broad specificity for all the prostaglandin families (PGF, PGE, PGD, and thromboxane B-type) synthesized in the COX-1/COX-2 reactions. The synthesized prostaglandin competes with a PG-tagged acetylcholine esterase tracer for binding to the PG antibody. Binding of synthesized PG lowers the colorimetric development of the Ellman's Reagent (computed as %B/B0). The actual amount of synthesized PG was interpolated from a standard curve using known amounts of supplied prostaglandin E2 (PGE2) (PGE2 concentration vs. %B/B0). The data generated were the mean±standard deviation of triplicate wells in the EIA for a single reaction at a given inhibitor concentration. A plot of % of control (i.e., the solvent control without inhibitor) vs. test compound inhibitor concentration for both isoenzymes was used to determine the IC50 's for COX-1 and COX-2 for that test compound, when IC50's were calculated. The % inhibition for COX-1 and COX-2 enzyme activity by the test compounds at the indicated concentrations are given in Table 1.

COX-2 [2] = target: T2, COX-2 (Homo sapiens, UniProt P35354); experiment: Human COX-2 enzyme activity (COX Inhibitor Screening Assay, prostaglandin EIA); type: biochemical; parameters: purchased Cayman Chemical; settings: test compound at 10 μM
T2 sequence (P35354 18-604): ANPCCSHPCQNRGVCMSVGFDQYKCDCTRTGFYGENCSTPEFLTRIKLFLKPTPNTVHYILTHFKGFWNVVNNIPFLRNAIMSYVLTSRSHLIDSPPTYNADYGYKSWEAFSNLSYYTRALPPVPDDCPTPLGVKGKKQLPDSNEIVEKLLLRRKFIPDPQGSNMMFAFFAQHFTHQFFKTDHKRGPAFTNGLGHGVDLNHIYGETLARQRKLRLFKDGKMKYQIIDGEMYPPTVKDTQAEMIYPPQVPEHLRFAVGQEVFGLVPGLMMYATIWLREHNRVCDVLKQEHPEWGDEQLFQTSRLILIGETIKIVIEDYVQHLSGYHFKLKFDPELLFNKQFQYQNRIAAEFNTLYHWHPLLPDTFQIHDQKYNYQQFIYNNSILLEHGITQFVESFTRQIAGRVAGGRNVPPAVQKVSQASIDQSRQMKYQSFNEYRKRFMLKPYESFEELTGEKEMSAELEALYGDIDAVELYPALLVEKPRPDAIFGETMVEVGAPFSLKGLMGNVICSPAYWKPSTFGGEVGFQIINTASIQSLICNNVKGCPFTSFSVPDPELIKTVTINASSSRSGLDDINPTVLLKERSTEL
Experimental: as §1
as §2, with “concentration.” for “concentration. A plot of % of control (i.e., the solvent control without inhibitor) vs. test compound inhibitor concentration for both isoenzymes was used to determine the IC50 's for COX-1 and COX-2 for that test compound, when IC50's were calculated. The % inhibition for COX-1 and COX-2 enzyme activity by the test compounds at the indicated concentrations are given in Table 1.”

COX-1 [3] = target: T1, COX-1; experiment: COX-1 enzyme activity in human whole blood (A23187 stimulated, thromboxane B2 EIA); type: cell-based; parameters: Human blood (≈50 mL) from male or female donors who had not received any aspirin or NSAIDs for 14 days; endogenous in cells; host or cells: human whole blood from donors; settings: test compound at 100 μM
Experimental: (§3) The assay for COX-1 and COX-2 enzyme activity, in the human whole blood was performed as described in Brideau et al., Inflamm Res., 45: 68-74 (1996)). Human blood (≈50 mL) from male or female donors who had not received any aspirin or NSAIDs for 14 days was collected at two local area blood donor centers and placed in polypropylene syringes containing sodium heparin (20 units per mL blood, final concentration). The blood was transported to the laboratory on ice packs and used within 1.5 hours of collection. Upon receipt in the laboratory, the blood was allowed to come to room temperature for 15 minutes prior to distribution in 1 mL aliquots per well of 24 well tissue culture plates. The plates were then placed on a gently rotating platform shaker in a 5% CO2 incubator at 37° C. for 15 minutes. Test compounds were dissolved in DMSO, at 1000 fold the final desired concentration, and further diluted, as indicated, in DMSO. One μL of each dilution of the test compound was added per well, in duplicate wells; wells not receiving test compound (e.g., basal, background or control wells) received 1 μL DMSO.
(§4) To induce COX-2, lipopolysaccharide (LPS) from E. coli (LPS, serotype 026:B6 or serotype 0127:B8, Sigma Chemical Co., St. Louis, Mo., Catalogue No. L3755 or L3129, respectively) was added at 10 μg/mL (2 μL of 5 mg/mL LPS in DMSO) to appropriate wells 15 minutes after the addition of the test compound. (Basal or background wells not incubated with LPS received 2 μL of DMSO.) For the stimulation of COX-1, the calcium ionophore, A23187 (free acid from Sigma Chemical Co., St. Louis, Mo., Catalogue No. C7522) was added at 25 μM (1 μL of 25 mM stock in DMSO) to separate wells 4.5 hours after the addition of the test compound. (Again, basal, background or control wells not stimulated with A23187 received 1 μL of DMSO.) At 5 hours after the addition of the test compound, all incubations were terminated by placement on ice and the addition of 2 mM EGTA (100 μL of 20 mM EGTA, tetrasodium, in PBS (phosphate buffered saline) without Ca^++ and Mg^++, pH 7.2)). The resulting solutions, were transferred by polyethylene transfer pipettes to 15 mL polypropylene centrifuge tubes and centrifuged at 1200 g for 10 minutes at 4° C. One hundred μL of plasma was removed from each blood sample and added to 1 mL of methanol in new 15 mL polypropylene centrifuge tubes, vortexed, and stored overnight at −20° C. The next day, the samples were centrifuged at 2000 g for 10 minutes at 4° C. and the supernatants transferred to glass tubes and evaporated to dryness. The samples were assayed for thromboxane B2 using EIA kits supplied by Cayman Chemical Co. (Ann Arbor, Mich., Catalogue No. 519031) in duplicate wells after reconstitution with EIA Buffer and appropriate dilution (2000 fold for COX-1 and 500 fold for Cox-2 samples).

COX-2 [4] = target: T2, COX-2; experiment: COX-2 enzyme activity in human whole blood (LPS induced, thromboxane B2 EIA); type: cell-based; parameters: Human blood (≈50 mL) from male or female donors who had not received any aspirin or NSAIDs for 14 days; endogenous in cells; host or cells: human whole blood from donors, LPS-induced; settings: test compound at 10 μM
Experimental: as §3, with “Human” for “The assay for COX-1 and COX-2 enzyme activity, in the human whole blood was performed as described in Brideau et al., Inflamm Res., 45: 68-74 (1996)). Human”
as §4, with “(Basal or background wells not incubated with LPS received 2 μL of DMSO.) For the stimulation of COX-1, the calcium ionophore, A23187 (free acid from Sigma Chemical Co., St. Louis, Mo., Catalogue No. C7522) was added at 25 μM (1 μL of 25 mM stock in DMSO) to separate wells 4.5 hours after the addition of the test compound.” left out, “dryness.” for “dryness. The samples were assayed for thromboxane B2 using EIA kits supplied by Cayman Chemical Co. (Ann Arbor, Mich., Catalogue No. 519031) in duplicate wells after reconstitution with EIA Buffer and appropriate dilution (2000 fold for COX-1 and 500 fold for Cox-2 samples).”

T1 sequence (P23219 24-599): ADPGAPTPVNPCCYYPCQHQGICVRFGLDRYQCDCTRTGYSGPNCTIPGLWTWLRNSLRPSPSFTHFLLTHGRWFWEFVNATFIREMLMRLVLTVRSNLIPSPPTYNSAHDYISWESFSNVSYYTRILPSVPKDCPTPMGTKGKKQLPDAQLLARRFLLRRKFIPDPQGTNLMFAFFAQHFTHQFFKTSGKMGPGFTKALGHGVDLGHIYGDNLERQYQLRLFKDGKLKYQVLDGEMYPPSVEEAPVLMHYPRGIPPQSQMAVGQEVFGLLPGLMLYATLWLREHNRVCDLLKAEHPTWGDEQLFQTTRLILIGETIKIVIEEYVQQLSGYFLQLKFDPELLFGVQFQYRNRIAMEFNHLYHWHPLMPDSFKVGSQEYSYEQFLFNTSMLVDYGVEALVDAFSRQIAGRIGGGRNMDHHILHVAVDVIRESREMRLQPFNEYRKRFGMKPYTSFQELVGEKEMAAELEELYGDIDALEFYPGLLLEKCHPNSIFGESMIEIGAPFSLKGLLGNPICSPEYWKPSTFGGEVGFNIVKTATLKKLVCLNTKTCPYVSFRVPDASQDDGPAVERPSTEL

Row | Structure (SMILES) | COX-1 Inhibition (% at 100 μM) (COX-1 [1]) [%] | COX-2 Inhibition (% at 10 μM) (COX-2 [2]) [%] | COX-1 Inhibition (% at 100 μM) (COX-1 [3]) [%] | melting point [°C] | inhibition at 100 µM (COX-1 [3]) [%] | inhibition at 10 µM (COX-2 [4]) [%]
1 | CS(=O)(=O)c1ccc(-c2cc3c(cc2C(=O)c2cccnc2)OCO3)cc1 [Example 6d, 6-(4-(Methylsulfonyl)phenyl)(2H-benzo(d)1,3-dioxolan-5-yl) 3-pyridyl ketone] | 20 | 20 |  |  |  | 
2 | CS(=O)(=O)c1ccc(-c2cc3c(cc2CN2CCCC(CO)C2)OCO3)cc1 (stereo not shown) [Example 8b, 1-(6-((3-(Hydroxymethyl)piperidyl)methyl)(2H-benzo(3,4-d)1,3-dioxolan-5-yl))-4-(methylsulfonyl)benzene] | 0 | 30 |  |  |  | 
3 | CS(=O)(=O)c1ccc(-c2cc3c(cc2CN2CCCC(CO[N+](=O)[O-])C2)OCO3)cc1 (stereo not shown) [Example 8c, 4-(Methylsulfonyl)-1-(6-((3-((nitrooxy)methyl)piperidyl)methyl)(2H-benzo(3,4-d) 1,3-dioxolan-5-yl))benzene] | 25 | 80 |  |  |  | 
4 | CS(=O)(=O)c1ccc(-c2cc3c(cc2CC2CCCC2)OCO3)cc1 [Example 10b, 4-(6-(Cyclopenthylmethyl)(2H-benzo(3,4-d)1,3-dioxolan-5-yl))-1-(methylsulfonyl)benzene] | 20 | 70 |  |  |  | 
5 | CS(=O)(=O)c1ccc(-c2cc3c(cc2C=C2CCCCCC2)OCO3)cc1 [Example 11b, 4-(6-(Cycloheptylidenemethyl)(2H-benzo(3,4-d)1,3-dioxolan-5-yl))-1-(methylsulfonyl) benzene] | 10 |  | 40 |  |  | 
6 | CS(=O)(=O)c1ccc(-c2cc3c(cc2Cc2cc(F)cc(F)c2)OCCO3)cc1 [Example 20, 1-(7-((3,5-Difluorophenyl)methyl)(2H, 3H-benzo(3,4-e)1,4-dioxin-6-yl))-4-(methylsulfonyl)benzene] |  |  |  | 160 to 162 | 70 | 40
7 | CS(=O)(=O)c1ccc(-c2cc3c(cc2Cc2cc(F)cc(F)c2)OC(C(N)=O)CO3)cc1 (stereo not shown) [Example 21, 7-((3,5-Difluorophenyl)methyl)-6-(4-(methylsulfonyl)phenyl)-2H, 3H-benzo(e)1,4-dioxin-2-carboxamide] |  |  |  | 238 to 241 | 50 | 30
8 | CS(=O)(=O)c1ccc(-c2cc3c(cc2C(=O)c2cc(F)cc(F)c2)OCCO3)cc1 [Example 22, 3,5-Difluorophenyl 7-(4-(methylsulfonyl)phenyl)(2H, 3H-benzo(e)1,4-dioxin-6-yl) ketone] |  |  |  | 191 to 193 | 90 | 55

Source: patent US6825185B2, “Substituted aryl compounds as novel cyclooxygenase-2 selective inhibitors, compositions and methods of use” (NitroMed, Inc., priority 2000, dated 2004)
